From US9005633B2 (priority 2009, dated 2015) come the findings set out here.

Like-named read-outs stand apart in the source and are kept apart here.

Holding throughout (details): 10 ug/ml AMT, 200 mW/cm2 UV-A
One assay relates to YF (FMD 1240). Format: cell-based, Yellow Fever (YF).
Assay [1] has as its system WNV (CDC) M29539 (NY99-35262-11). The experiment in a line: AMT photo-inactivation of arbovirus: West Nile Virus. Format: cell-based, West Nile Virus (WNV).
In a further assay the test system is SLE TBH-28 CDC M29777. Kind of assay: AMT photo-inactivation of arbovirus: Saint Louis Encephalitis. The class given is cell-based, Saint Louis Encephalitis (SLE).
A further assay has as its system VEE TC 83 TVB 5215. Format: cell-based, Venezuelan Equine Encephalitis (VEE).

As to `Cc1oc2c(C)c3oc(=O)cc(C)c3cc2c1CN.Cl` [AMT, 4′-Aminomethyltrioxsalen hydrochloride], the “YF (FMD 1240) titer after AMT and UV-A” value with YF (FMD 1240) (0 minutes) is reported as 1.47E+05 PFU/ml; in the assay with YF (FMD 1240) (1 minute) it was 3.68E+04 PFU/ml; with YF (FMD 1240) (5 minutes) it was 9.00E+01 PFU/ml; in the assay with YF (FMD 1240) (10 minutes), 0 PFU/ml; in the assay with YF (FMD 1240) (20 minutes), 0 PFU/ml. For the same compound, the “WNV (CDC) M29539 (NY99-35262-11) titer after AMT and UV-A” value in assay [1] (0 minutes) stood at 8.00E+04 PFU/ml; in assay [1] (1 minute), 1.68E+04 PFU/ml; in assay [1] (5 minutes) it was 5.00E+01 PFU/ml; in assay [1] (10 minutes) it was 0 PFU/ml; in assay [1] (20 minutes) it was 0 PFU/ml. The “SLE TBH-28 CDC M29777 titer after AMT and UV-A” value with SLE TBH-28 CDC M29777 (0 minutes) is reported as 3.20E+03 PFU/ml; in the assay with SLE TBH-28 CDC M29777 (1 minute) it was 8.00E+01 PFU/ml; with SLE TBH-28 CDC M29777 (5 minutes) it was 0 PFU/ml; with SLE TBH-28 CDC M29777 (10 minutes), 0 PFU/ml; in the assay with SLE TBH-28 CDC M29777 (20 minutes), 0 PFU/ml. Also, the “VEE TC 83 TVB 5215 titer after AMT and UV-A” value with VEE TC 83 TVB 5215 (0 minutes) came to 1.72E+09 PFU/ml; with VEE TC 83 TVB 5215 (1 minute) it was 1.60E+08 PFU/ml; in the assay with VEE TC 83 TVB 5215 (5 minutes) it was 4.80E+04 PFU/ml; in the assay with VEE TC 83 TVB 5215 (10 minutes) it was 1.50E+02 PFU/ml; with VEE TC 83 TVB 5215 (20 minutes), 0 PFU/ml.
